Counter-ions that a name gives are not always drawn. Like-named read-outs stand apart in the source and are kept apart here.
How the values were obtained:
Assay type in all cases: biochemical
[1] = target: T1, human JAK2 (a.a. 828-1132) (Homo sapiens, UniProt O60674); assay: In vitro JAK kinase assay (HTRF, phosphorylation of a biotinylated peptide), JAK2
T1 construct: JAK2 (a.a. 828-1132); His tag (N); made in house; host or cells: insect cells (baculovirus)
Method in brief: (§1)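 Kinase activity was measured as phosphorylation of a biotinylated peptide, with ATP at 90 μM for JAK1, 30 μM for JAK2 and 3 μM for JAK3. Reactions ran 1 hr at room temperature, were stopped with EDTA plus SA-APC and Eu-Py20, and were read by HTRF after 40 minutes of antibody binding.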

[2] = target: T2, human JAK3 (a.a. 781-1124) (Homo sapiens, UniProt P52333); assay: In vitro JAK kinase assay (HTRF, phosphorylation of a biotinylated peptide), JAK3
T2 construct: JAK3 (a.a. 781-1124); His tag (N); made in house; host or cells: insect cells (baculovirus)
T2 sequence (P52333 781-1124): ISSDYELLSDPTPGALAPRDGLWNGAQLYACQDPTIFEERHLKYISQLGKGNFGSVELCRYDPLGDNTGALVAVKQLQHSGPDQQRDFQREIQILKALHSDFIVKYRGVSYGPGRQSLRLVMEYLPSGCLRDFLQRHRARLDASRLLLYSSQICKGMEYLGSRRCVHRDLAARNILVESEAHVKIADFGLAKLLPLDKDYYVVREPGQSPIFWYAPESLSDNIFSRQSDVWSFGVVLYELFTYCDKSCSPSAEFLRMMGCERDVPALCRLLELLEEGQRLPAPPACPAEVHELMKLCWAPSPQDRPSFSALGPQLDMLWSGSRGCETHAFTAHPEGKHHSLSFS
Method in brief: as §1

[3] = target: T3, human JAK1 (a.a. 837-1142) (Homo sapiens, UniProt P23458); assay: In vitro JAK kinase assay (HTRF, phosphorylation of a biotinylated peptide), JAK1; details: read-out: JAK1 IC50
T3 construct: human JAK1 (a.a. 837-1142); His tag (N); made in house; host or cells: insect cells (baculovirus)
T3 sequence (P23458 849-1154): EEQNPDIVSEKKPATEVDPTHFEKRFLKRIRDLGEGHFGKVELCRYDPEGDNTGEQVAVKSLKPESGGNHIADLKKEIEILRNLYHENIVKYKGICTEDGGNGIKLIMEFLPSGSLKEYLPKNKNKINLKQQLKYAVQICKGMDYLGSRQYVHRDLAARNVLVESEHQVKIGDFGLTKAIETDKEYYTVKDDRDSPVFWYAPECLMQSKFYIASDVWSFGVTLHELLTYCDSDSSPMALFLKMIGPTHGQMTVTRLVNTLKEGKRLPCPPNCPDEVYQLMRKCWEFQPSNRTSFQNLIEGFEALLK
Method in brief: as §1

TYK2 = TYK2 (Homo sapiens, UniProt P29597); assay: TYK2 kinase inhibition (Table A1)
Chain of TYK2 (P29597 whole entry): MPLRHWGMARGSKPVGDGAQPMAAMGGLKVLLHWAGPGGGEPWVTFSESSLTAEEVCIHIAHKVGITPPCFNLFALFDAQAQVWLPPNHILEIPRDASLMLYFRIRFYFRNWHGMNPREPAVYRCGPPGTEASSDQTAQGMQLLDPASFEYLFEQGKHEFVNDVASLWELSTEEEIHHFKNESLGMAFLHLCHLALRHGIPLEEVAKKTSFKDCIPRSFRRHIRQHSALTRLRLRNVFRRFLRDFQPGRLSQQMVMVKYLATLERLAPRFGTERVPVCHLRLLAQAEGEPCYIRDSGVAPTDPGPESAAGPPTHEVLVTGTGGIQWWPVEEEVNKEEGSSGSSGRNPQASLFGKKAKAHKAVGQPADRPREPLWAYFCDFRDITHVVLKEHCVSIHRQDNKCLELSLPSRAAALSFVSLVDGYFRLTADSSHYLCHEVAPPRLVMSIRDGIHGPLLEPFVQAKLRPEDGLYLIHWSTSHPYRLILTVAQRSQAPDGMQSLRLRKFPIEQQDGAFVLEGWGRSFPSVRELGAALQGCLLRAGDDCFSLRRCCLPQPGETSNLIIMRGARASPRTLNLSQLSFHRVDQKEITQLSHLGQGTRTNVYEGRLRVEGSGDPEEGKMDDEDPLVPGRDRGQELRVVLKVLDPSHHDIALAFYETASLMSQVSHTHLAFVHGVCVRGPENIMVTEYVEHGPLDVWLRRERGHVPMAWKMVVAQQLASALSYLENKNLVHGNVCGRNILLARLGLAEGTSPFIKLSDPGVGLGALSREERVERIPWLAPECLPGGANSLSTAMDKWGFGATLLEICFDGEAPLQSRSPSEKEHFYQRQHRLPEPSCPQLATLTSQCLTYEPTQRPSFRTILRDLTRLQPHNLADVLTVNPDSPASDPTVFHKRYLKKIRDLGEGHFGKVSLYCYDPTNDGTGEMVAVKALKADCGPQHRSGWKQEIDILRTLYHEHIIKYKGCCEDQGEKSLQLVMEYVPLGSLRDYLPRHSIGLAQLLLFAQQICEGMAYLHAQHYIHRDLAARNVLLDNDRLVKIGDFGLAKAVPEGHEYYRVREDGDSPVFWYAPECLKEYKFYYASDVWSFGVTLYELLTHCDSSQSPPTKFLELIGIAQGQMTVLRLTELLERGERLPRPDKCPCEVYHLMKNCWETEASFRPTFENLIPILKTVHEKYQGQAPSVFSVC

[4] = target: T4, Recombinant Human Anaplastic Lymphoma Kinase (Homo sapiens, UniProt Q9UM73); assay: ALK HTRF kinase assay
T4 construct: purchased Invitrogen, Carlsbad, Calif
T4 sequence (Q9UM73 19-1620): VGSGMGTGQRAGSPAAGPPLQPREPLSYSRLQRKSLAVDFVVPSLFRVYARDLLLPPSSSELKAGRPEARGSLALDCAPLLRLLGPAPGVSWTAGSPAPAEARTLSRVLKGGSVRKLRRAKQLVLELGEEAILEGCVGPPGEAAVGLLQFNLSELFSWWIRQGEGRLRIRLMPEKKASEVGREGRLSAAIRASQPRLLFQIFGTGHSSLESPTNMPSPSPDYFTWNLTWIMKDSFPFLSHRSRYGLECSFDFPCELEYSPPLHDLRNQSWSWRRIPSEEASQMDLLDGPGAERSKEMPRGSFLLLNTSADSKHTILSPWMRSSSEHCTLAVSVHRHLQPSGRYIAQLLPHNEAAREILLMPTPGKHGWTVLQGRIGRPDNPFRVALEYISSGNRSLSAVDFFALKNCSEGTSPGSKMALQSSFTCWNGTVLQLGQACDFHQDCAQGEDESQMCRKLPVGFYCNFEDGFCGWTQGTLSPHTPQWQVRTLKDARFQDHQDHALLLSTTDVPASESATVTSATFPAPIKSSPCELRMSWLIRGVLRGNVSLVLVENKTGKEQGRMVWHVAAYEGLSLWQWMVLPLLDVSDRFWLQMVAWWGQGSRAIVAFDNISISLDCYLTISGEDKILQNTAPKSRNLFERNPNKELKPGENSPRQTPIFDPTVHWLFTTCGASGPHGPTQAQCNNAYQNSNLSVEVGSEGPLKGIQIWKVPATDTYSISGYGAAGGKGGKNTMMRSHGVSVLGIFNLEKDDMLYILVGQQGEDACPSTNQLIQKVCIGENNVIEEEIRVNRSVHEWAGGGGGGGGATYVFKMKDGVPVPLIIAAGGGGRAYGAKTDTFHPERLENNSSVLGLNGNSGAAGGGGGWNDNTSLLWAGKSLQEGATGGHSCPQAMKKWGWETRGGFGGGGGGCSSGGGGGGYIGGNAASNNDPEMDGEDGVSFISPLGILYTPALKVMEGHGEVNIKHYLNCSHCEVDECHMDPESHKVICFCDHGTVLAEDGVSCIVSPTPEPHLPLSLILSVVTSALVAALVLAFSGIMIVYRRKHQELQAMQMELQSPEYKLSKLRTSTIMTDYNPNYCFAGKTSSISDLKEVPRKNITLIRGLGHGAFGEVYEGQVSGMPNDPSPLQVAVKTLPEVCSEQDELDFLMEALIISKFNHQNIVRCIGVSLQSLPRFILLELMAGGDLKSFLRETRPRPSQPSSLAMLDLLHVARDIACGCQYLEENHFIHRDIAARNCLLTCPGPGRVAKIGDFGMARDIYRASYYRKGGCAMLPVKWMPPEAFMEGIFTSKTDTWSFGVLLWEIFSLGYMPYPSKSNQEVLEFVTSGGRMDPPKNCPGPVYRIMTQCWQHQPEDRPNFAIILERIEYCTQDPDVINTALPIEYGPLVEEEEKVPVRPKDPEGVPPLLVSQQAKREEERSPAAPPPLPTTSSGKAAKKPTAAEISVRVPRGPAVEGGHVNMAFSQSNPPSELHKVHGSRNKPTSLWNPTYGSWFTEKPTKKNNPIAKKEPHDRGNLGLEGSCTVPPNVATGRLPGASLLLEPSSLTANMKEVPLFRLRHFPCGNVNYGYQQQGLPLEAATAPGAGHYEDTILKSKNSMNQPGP
Method in brief: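 TR-FRET read-out (Eu anti-pTyr antibody + streptavidin-APC) of biotin-peptide phosphorylation by recombinant human enzyme; IC50 by sigmoidal fit with top/bottom baselines and Hill slope.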

[5] = Table B1, cells without percent sign
[6] = method AA1 (30 μM ATP) or AA2 (1000 μM ATP), not stated per value
[7] = method AA1 (3 μM ATP) or AA2 (1000 μM ATP), not stated per value
[8] = method AA1 (90 μM ATP) or AA2 (1000 μM ATP), not stated per value
[9] = compound at 500 nM or 1 mM, 90 μM ATP
[10] = compound at a concentration of 500 nM or 1 mM (not specified), cells shown as percentage

T1 sequence (O60674 828-1132): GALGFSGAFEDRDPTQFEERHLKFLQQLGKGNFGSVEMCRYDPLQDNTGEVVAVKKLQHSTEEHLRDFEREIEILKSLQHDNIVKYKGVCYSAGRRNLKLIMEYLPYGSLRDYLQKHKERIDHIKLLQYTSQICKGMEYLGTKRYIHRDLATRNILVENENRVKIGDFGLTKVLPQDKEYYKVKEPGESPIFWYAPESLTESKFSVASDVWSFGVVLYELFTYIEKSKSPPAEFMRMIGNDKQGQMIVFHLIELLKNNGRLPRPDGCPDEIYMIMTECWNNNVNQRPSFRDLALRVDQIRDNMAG

Row | IC50 ([1]; Table B1) | IC50 ([2]; Table B1) | IC50 ([3]; Table B1) | IC50 (TYK2; Table B1) | IC50 [1, 6] | IC50 [2, 7] | IC50 [3, 8] | IC50 (TYK2) | ALK % of inhibition at a concentration of 500 nM or 1 mM [4, 9] | SMILES | other results
1 | 12 nM | 108 nM | 36 nM | 251 nM |  |  |  |  |  | O=[N+]([O-])c1ccc(CN2CCN(Cc3cc4cc(c3)Nc3nc(ncc3Cl)Nc3cccc(c3)CC4)CC2)cc1 [Example B194, 6-Chloro-11-{[4-(4-nitrobenzyl)piperazin-1-yl]methyl}-2,4,8,22-tetraazatetracyclo[14.3.1.1(3,7).1(9,13)]docosa-1(20),3(22),4,6,9(21),10,12,16,18-nonaene tris(trifluoroacetate)] | IC50 [4, 5]: > 1000 nM
2 |  |  |  |  |  |  |  |  |  | O=C(Nc1ccccc1)N1CCN(c2cc(-c3cc4cc(c3)Nc3ncc(Cl)c(n3)Nc3cccc(c3)OCC4)ccn2)CC1 [Example D44, 4-{4-[6-Chloro-14-oxa-2,4,8,23-tetraazatetracyclo[15.3.1.1(3,7).1(9,13)]tricosa-1(21),3(23),4,6,9(22),10,12,17,19-nonaen-19-yl]pyridin-2-yl}-N-phenylpiperazine-1-carboxamide bis(trifluoroacetate)] | IC50 ([1]; Table D1): 1.5 nM; IC50 ([2]; Table D1): 18 nM; IC50 ([3]; Table D1): 2.6 nM; IC50 (TYK2; Table D1): 15 nM; IC50 ([4]; Table D1, 90 μM ATP): 480 nM
3 |  |  |  |  | 20 nM | 44 nM | 14 nM | 33 nM | 27% | O=C(CCC1CCNCC1)Nc1ccc2cc1CCc1cccc(c1)Nc1ncc(Cl)c(n1)N2 [Example A116, N-[6-Chloro-2,4,8,22-tetraazatetracyclo[14.3.1.1(3,7).1(9,13)]docosa-1(20),3(22),4,6,9(21),10,12,16,18-nonaen-12-yl]-3piperidin-4-ylpropanamide bis(trifluoroacetate)] | 
4 |  |  |  |  | 0.7 nM | 3 nM | 10 nM | 8 nM | 49% | NS(=O)(=O)N1CCCC(C(=O)Nc2ccc3cc2CCc2cccc(c2)Nc2ncc(Cl)c(n2)N3)C1 (centres unmarked) [Example A73, 1-(Aminosulfonyl)-N-[6-chloro-2,4,8,22-tetraazatetracyclo[14.3.1.1(3,7).1(9,13)]docosa-1(20),3(22),4,6,9(21),10,12,16,18-nonaen-12-yl]piperidine-3-carboxamide trifluoroacetate] | 
5 |  |  |  |  |  |  |  |  |  | Clc1cnc2nc1Nc1cccc(c1)OCCc1cc(cc(-c3cccnc3)c1)N2 [Example D26, 6-Chloro-19-pyridin-3-yl-14-oxa-2,4,8,23-tetraazatetracyclo[15.3.1.1(3,7).1(9,13)]tricosa-1(21),3(23),4,6,9(22),10,12,17,19-nonaene bis(trifluoroacetate)] | IC50 ([1]; Table D1): 0.6 nM; IC50 ([2]; Table D1): 8.5 nM; IC50 ([3]; Table D1): 1.2 nM; IC50 (TYK2; Table D1): 2.7 nM; IC50 ([4]; Table D1, 90 μM ATP): 138 nM
6 |  |  |  |  | 5.9 nM | 44 nM | 3.7 nM | 14 nM | 29% | CS(=O)(=O)N1CCC(CC(=O)Nc2ccc3cc2CCc2cncc(c2)Nc2ncc(Cl)c(n2)N3)C1 (centres unmarked) [Example A91, N-[6-Chloro-2,4,8,18,22-pentaazatetracyclo[14.3.1.1(3,7).1(9,13)]docosa-1(20),3(22),4,6,9(21),10,12,16,18-nonaen-12-yl]-2-[1-(methylsulfonyl)pyrrolidin-3-yl]acetamide bis(trifluoroacetate)] | 
7 | 56 nM | 101 nM | 36 nM | 205 nM |  |  |  |  |  | O=C(Nc1ccccc1)Nc1cc2cc(c1)Nc1nc(ncc1Cl)Nc1cccc(c1)CC2 [Example B202, N-[6-Chloro-2,4,8,22-tetraazatetracyclo[14.3.1.1(3,7).1(9,13)]docosa-1(20),3(22),4,6,9(21),10,12,16,18-nonaen-11-yl]-N′-phenylurea trifluoroacetate] | IC50 [4, 5]: 3600 nM
8 |  |  |  |  | 5 nM | 10 nM | 13 nM | 21 nM | 30% | CC(=O)N1CC[C@@H](C(=O)Nc2ccc3cc2CCc2cccc(c2)Nc2ncc(Cl)c(n2)N3)C1 [Example A51, (3R)-1-Acetyl-N-[6-chloro-2,4,8,22-tetraazatetracyclo[14.3.1.1(3,7).1(9,13)]docosa-1(20),3(22),4,6,9(21),10,12,16,18-nonaen-12-yl]pyrrolidine-3-carboxamide trifluoroacetate] | 
9 |  |  |  |  | 2.8 nM | 4.1 nM | 2 nM | 11 nM | 46% | O=C(Nc1ccccc1)N[C@@H](CO)C(=O)Nc1ccc2cc1CCc1cccc(c1)Nc1ncc(Cl)c(n1)N2 [Example A68, (2S)-2-[(Anilinocarbonyl)amino]-N-[6-chloro-2,4,8,22-tetraazatetracyclo[14.3.1.1(3,7).1(9,13)]docosa-1(20),3(22),4,6,9(21),10,12,16,18-nonaen-12-yl]-3-hydroxypropanamide trifluoroacetate] | 
10 | 6.7 nM | 30 nM | 5.6 nM | 24 nM |  |  |  |  |  | Cc1cccc(Cl)c1NC(=O)Nc1ccc2cc1CCc1cccc(c1)Nc1ncc(Cl)c(n1)N2 [Example B122, N-(2-Chloro-6-methylphenyl)-N′-[6-chloro-2,4,8,22-tetraazatetracyclo[14.3.1.1(3,7).1(9,13)]docosa-1(20),3(22),4,6,9(21),10,12,16,18-nonaen-12-yl]urea trifluoroacetate] | ALK % of inhibition at a concentration of 500 nM or 1 mM [4, 10]: 13%
11 | 409 nM | > 10000 nM | 13 nM | 727 nM |  |  |  |  |  | Cn1cc(C(=O)N2CC[C@H](NC(=O)Nc3ccc4cc3CCc3cncc(c3)Nc3ncc(Cl)c(n3)N4)C2)cn1 [Example B269, N-[6-Chloro-2,4,8,18,22-pentaazatetracyclo[14.3.1.1(3,7).1(9,13)]docosa-1(20),3(22),4,6,9(21),10,12,16,18-nonaen-12-yl]-N′-{(3S)-1-[(1-methyl-1H-pyrazol-4-yl)carbonyl]pyrrolidin-3-yl}urea bis(trifluoroacetate)] | ALK % of inhibition at a concentration of 500 nM or 1 mM [4, 10]: 10%
12 |  |  |  |  | > 400 nM | > 400 nM | 90 nM | > 400 nM | 5.9% | N#Cc1ccc(C(F)(F)F)cc1N1CCC(CC(=O)Nc2ccc3cc2CCc2cncc(c2)Nc2ncc(Cl)c(n2)N3)CC1 [Example A237, N-[6-Chloro-2,4,8,18,22-pentaazatetracyclo[14.3.1.1(3,7).1(9,13)]docosa-1(20),3(22),4,6,9(21),10,12,16,18-nonaen-12-yl]-2-{1-[2-cyano-5-(trifluoromethyl)phenyl]piperidin-4-yl}acetamide tris(trifluoroacetate)] | 
13 |  |  |  |  |  |  |  |  |  | O=C(Nc1ccccc1)c1cc2cc(c1)OCCSc1cccc(c1)Nc1nc(ncc1Cl)N2 [Example D50, 6-Chloro-N-phenyl-17-oxa-14-thia-2,4,8,24-tetraazatetracyclo[16.3.1.1(3,7).1(9,13)]tetracosa-1(22),3(24),4,6,9(23),10,12,18,20-nonaene-20-carboxamide trifluoroacetate] | IC50 ([1]; Table D1): 4.1 nM; IC50 ([2]; Table D1): 55 nM; IC50 ([3]; Table D1): 7.3 nM; IC50 (TYK2; Table D1): 16 nM; IC50 ([4]; Table D1, 90 μM ATP): 1500 nM
14 | 6.1 nM | 7.1 nM | 4 nM | 16 nM |  |  |  |  |  | O=C(NCCNS(=O)(=O)c1ccc(Cl)s1)Nc1ccc2cc1CCc1cccc(c1)Nc1ncc(Cl)c(n1)N2 [Example B330, 5-Chloro-N-{2-[({[6-chloro-2,4,8,22-tetraazatetracyclo[14.3.1.1(3,7).1(9,13)]docosa-1(20),3(22),4,6,9(21),10,12,16,18-nonaen-12-yl]amino}carbonyl)amino]ethyl}thiophene-2-sulfonamide trifluoroacetate] | ALK % of inhibition at a concentration of 500 nM or 1 mM ([4]; percentage inhibition of the example compound at a concentration of 500 nM or 1 mM (not specified which)): 21%
15 | 34 nM | 165 nM | 11 nM | 33 nM |  |  |  |  |  | O=C(Nc1cccc(C(F)(F)F)c1)Nc1ccc2cc1CCc1cccc(c1)Nc1ncc(Cl)c(n1)N2 [Example B112, N-[6-Chloro-2,4,8,22-tetraazatetracyclo[14.3.1.1(3,7).1(9,13)]docosa-1(20), 3(22),4,6,9(21),10,12,16,18-nonaen-12-yl]-N′-[3-(trifluoromethyl)phenyl]urea trifluoroacetate] | ALK % of inhibition at a concentration of 500 nM or 1 mM [4, 10]: 3.3%
16 |  |  |  |  | 3 nM | 3.3 nM | 6 nM | 17 nM | 48% | NS(=O)(=O)N1CC[C@@H](C(=O)Nc2ccc3cc2CCc2cccc(c2)Nc2ncc(Cl)c(n2)N3)C1 [Example A74, (3R)-1-(Aminosulfonyl)-N-[6-chloro-2,4,8,22-tetraazatetracyclo[14.3.1.1(3,7).1(9,13)]docosa-1(20),3(22),4,6,9(21),10,12,16,18-nonaen-12-yl]pyrrolidine-3-carboxamide trifluoroacetate] | 

— US8871753B2, “Macrocyclic compounds and their use as kinase inhibitors” (Incyte Corporation, priority 2008, dated 2014)
